Results reported in paper PMC10487843, “Evaluation of Anticancer and Anti-Inflammatory Activities of Some Synthetic Rearranged Abietanes” (International Journal of Molecular Sciences, 2023).
≈ marks a conversion by molar mass, not a printed value. Like-named read-outs stand apart in the source and are kept apart here.

Assays:
[1] = set-up: method as in PMID 29772301; conditions: orthoquinones versus para-quinones; cell lines not given; read-out: cytotoxic activity; cited from earlier work
[2] = system: human colon adenocarcinoma (HT29); test: MTT cell viability assay, HT29; format: cell-based; conditions: Homo sapiens, HT-29, 72 h; for IC80: 80% growth inhibition; for IC50: read-out: IC50
Excerpt: (§1) In this study, we employed the MTT (3-(4,5-dimethyl thiazol-2-yl)-2,5-diphenyltetrazolium bromide) colorimetric assay to evaluate the cytotoxic activity of selected abietanes (compounds 5, 7, 13, 17, and 19) against three tumor cell lines: human colon adenocarcinoma (HT29), human hepatocarcinoma (HepG2), and murine melanoma (B16–F10). The MTT assay relied on the conversion of MTT to formazan by viable cells, with the formazan concentration proportional to the number of viable cells. The concentrations required for 50 and 80% growth inhibition (IC50 and IC80) were determined for each compound.
(§2) The human colorectal adenocarcinoma cell line HT29 (ECACC no. 9172201; ATCC no. HTB-38), the human hepatocarcinoma cell line HepG2 (ECACC no. 85011430), the mouse melanoma cells B16–F10 (ATCC no. CRL-6475), and the murine monocyte/macrophage like RAW 264.7 cell line (ATCC no, TIB-71) were obtained from the cell bank of the University of Granada, Spain. The tumor cell lines were cultured in DMEM (Dulbecco’s modified Eagle’s medium) supplemented with 2 mM glutamine, 10% heat-inactivated FCS (fetal calf serum), and 50 μg/mL of gentamicin (for all cancer cell lines). The RAW 264.7 cell line was cultured in RPMI1640 medium, supplemented with 2 mM glutamine, 10% heat-inactivated FCS, and 50 μg/mL of gentamicin. All cell lines were incubated at 37 °C, in an atmosphere of 5% CO2 and 95% humidity. The culture media were changed every 48 h, and the confluent cultures were separated with a trypsin solution (0.25% EDTA). In all experiments, monolayer cells were grown to 80–90% confluence in sterile cell culture flasks.
(§3) The effects of the compounds on the cell viability were established using the MTT method (Sigma, St. Louis, MO, USA). The cytotoxicity of the compounds was assessed by measuring the absorbance of MTT dye staining of metabolically competent cells. The cells were cultivated in 96-well plates at 6.0 × 10^3 cells/mL for the HT29 and RAW 264.7 cell lines, at 5.0 × 10^3 cells/mL for B16–F10 cells, and 15.0 × 10^3 cells/mL for the HepG2 cell line, with a final volume of 200 μL per well being incubated with the different products (0–100 μg/mL). After 72 h, 100 μL of MTT solution (0.5 mg/mL) in 50% of PBS and 50% of the medium was added to each well. Following incubation for 1.5 h, formazan was resuspended in 100 μL of DMSO, and each concentration was tested in triplicate. The cell viability relative to the untreated control cells was determined by measuring the absorbance at 570 nm using an ELISA plate reader (Tecan Sunrise MR20–301, TECAN, Grödig, Austria).

[3] = system: human hepatocarcinoma (HepG2); test: MTT cell viability assay, HepG2; format: cell-based; conditions: Homo sapiens; for IC80: 72 h, 80% growth inhibition; for IC50: HepG2, 72 h, read-out: IC50
Excerpt: as §1, §2, §3

[4] = system: murine melanoma (B16–F10); test: MTT cell viability assay, B16-F10; format: cell-based; conditions: Mus musculus, 72 h; for IC80: 80% growth inhibition
Excerpt: as §1, §2, §3

[5] = RAW 264.7 cell viability (MTT); format: cell-based, murine; conditions: mouse
Protocol: To evaluate the cytotoxic effects of the synthesized abietanes (5, 7, 13, 17, and 19) on RAW 264.7 monocyte/macrophage murine cells and to establish sub-cytotoxic concentrations for anti-inflammatory testing, we conducted cell viability assays using the MTT method. Each compound was tested at increasing concentration levels (0–100 μg/mL), and the IC50 values were determined by interpolation in the sigmoidal cytotoxicity curves (Figure 8). […] Additionally, sub-cytotoxic concentrations corresponding to ¾ IC50, ½ IC50, and ¼ IC50 were determined and selected for subsequent anti-inflammatory assays, ensuring that the observed effects were specifically attributed to the anti-inflammatory properties of the compounds rather than cytotoxicity. The human colorectal adenocarcinoma cell line HT29 (ECACC no. 9172201; ATCC no. HTB-38), the human hepatocarcinoma cell line HepG2 (ECACC no. 85011430), the mouse melanoma cells B16–F10 (ATCC no. CRL-6475), and the murine monocyte/macrophage like RAW 264.7 cell line (ATCC no, TIB-71) were obtained from the cell bank of the University of Granada, Spain. The tumor cell lines were cultured in DMEM (Dulbecco’s modified Eagle’s medium) supplemented with 2 mM glutamine, 10% heat-inactivated FCS (fetal calf serum), and 50 μg/mL of gentamicin (for all cancer cell lines). The RAW 264.7 cell line was cultured in RPMI1640 medium, supplemented with 2 mM glutamine, 10% heat-inactivated FCS, and 50 μg/mL of gentamicin. All cell lines were incubated at 37 °C, in an atmosphere of 5% CO2 and 95% humidity. The culture media were changed every 48 h, and the confluent cultures were separated with a trypsin solution (0.25% EDTA). In all experiments, monolayer cells were grown to 80–90% confluence in sterile cell culture flasks. The effects of the compounds on the cell viability were established using the MTT method (Sigma, St. Louis, MO, USA). The cytotoxicity of the compounds was assessed by measuring the absorbance of MTT dye staining of metabolically competent cells. The cells were cultivated in 96-well plates at 6.0 × 10^3 cells/mL for the HT29 and RAW 264.7 cell lines, at 5.0 × 10^3 cells/mL for B16–F10 cells, and 15.0 × 10^3 cells/mL for the HepG2 cell line, with a final volume of 200 μL per well being incubated with the different products (0–100 μg/mL). After 72 h, 100 μL of MTT solution (0.5 mg/mL) in 50% of PBS and 50% of the medium was added to each well. Following incubation for 1.5 h, formazan was resuspended in 100 μL of DMSO, and each concentration was tested in triplicate. The cell viability relative to the untreated control cells was determined by measuring the absorbance at 570 nm using an ELISA plate reader (Tecan Sunrise MR20–301, TECAN, Grödig, Austria).

[6] = system: NO release in LPS-stimulated RAW 264.7 macrophage cells; test: Inhibition of nitric oxide production (Griess nitrite assay) in LPS-activated RAW 264.7 macrophages; format: cell-based, murine; conditions: LPS-stimulated RAW 264.7, 48 h; for NO inhibition: ¾ IC50 concentration; for IC50: Mus musculus, RAW264.7
Protocol: To evaluate the anti-inflammatory activity of the rearranged abietanes (5, 7, 17, and 19) along with their precursor 13, we conducted experiments on RAW 264.7 macrophage cells, a well-known model for screening anti-inflammatory compounds. The macrophages were stimulated with LPS to induce the maximum release of nitric oxide (NO) during the inflammatory response. Subsequently, the different compounds were incubated with the cells at sub-cytotoxic concentrations for 48 h (Figure 9). Next, we determined the concentration of nitrites in the culture medium, which was proportional to the amount of NO release.
Nitrite production was analyzed using the Griess reaction method. The concentration of nitrite was used as an indication of nitric oxide (NO) production. RAW 264.7 cells were seeded at 6 × 10^4 cells/well in 24-well cell culture plates, supplemented with 10 μg/mL of lipopolysaccharide (LPS). […] The Griess reaction was conducted by mixing 150 μL of supernatant test samples or sodium nitrite standard (0–120 μM) with 25 μL of Griess reagent A (0.1% n-(1-naphthyl) ethylenediamine dihydrochloride) and 25 μL of Griess reagent B (1% sulfanilamide in 5% of phosphoric acid) in a 96-well plate. The mixture was incubated at room temperature for 15 min, after which the absorbance was measured at 540 nm using an ELISA plate reader (Tecan Sunrise MR20–301, TECAN, Grödig, Austria). To determine the concentration of nitrite in each sample supernatant, the absorbance was referenced to the nitrite standard curve. To determine the percentage of NO production, the increase between the negative control (untreated cells) and the positive control (cells only with 10 μg/mL of LPS) was assigned 100%.

[7] = system: human leukemia lymphoblastic NALM-6; set-up: method as in PMID 16989306; conditions: cited from earlier work
[8] = system: promyelocytic HL-60 cells; set-up: method as in PMID 16989306; conditions: cited from earlier work
human carcinoma KB cells = system: human carcinoma KB cells; set-up: method as in doi:10.1076/phbi.37.1.17.6321; conditions: cited from earlier work
P388 leukemia cells = system: P388 leukemia cells; set-up: method as in doi:10.1076/phbi.37.2.148.6082; conditions: cited from earlier work
[9] = RAW 264.7 monocyte/macrophage cells, RAW 264.7, MTT, 0–100 μg/mL, read-out: IC50 (cytotoxicity)

| IC50 [2] | IC50 [3] | IC50 [4] | Molecule | IC50 [1] | IC80 [2] | IC80 [3] | IC80 [4] | IC50 at 72 h [5, 9] | NO inhibition [6] | IC50 [6] | IC50 [7] | IC50 [8] | cytotoxic effect (human carcinoma KB cells) | cytotoxicity (P388 leukemia cells) | IC50 at 72 h [5] |
| --- | --- | --- | --- | --- | --- | --- | --- | --- | --- | --- | --- | --- | --- | --- | --- |
|  |  |  | aegyptinone A | 2.11 to 8.19 µM |  |  |  |  |  |  |  |  |  |  |  |
| 60.52 ± 0.28 µg/mL (≈ 204 µM) | 76.3 ± 2.14 µg/mL (≈ 257 µM) | 6.42 ± 0.35 µg/mL (≈ 21.7 µM) | CC(C)C1=CC2=C(C(=O)C1=O)C1=CCCC(C)(C)[C@@]1(C)C=C2 [Compound 19, viridoquinone] |  | 74.7 ± 1.53 µg/mL (≈ 252 µM) | 101 ± 3.47 µg/mL (≈ 339 µM) | 9.14 ± 0.38 µg/mL (≈ 30.8 µM) | 9.29 ± 0.35 µg/mL (≈ 31.3 µM) | 100% | 7.21 ± 0.9 µg/mL (≈ 24.3 µM) |  |  |  |  |  |
|  |  |  | C=C(C)CCCc1c(C)ccc2c1C(=O)C(=O)C(C(C)C)=C2 [aethiopinone] |  |  |  |  |  |  |  | 0.6 µg/mL (≈ 2.02 µM) | 4.8 µg/mL (≈ 16.2 µM) | potent cytotoxic effect |  |  |
| 7.82 ± 0.17 µg/mL (≈ 26.4 µM) | 21.2 ± 2.26 µg/mL (≈ 71.4 µM) | 6.89 ± 0.37 µg/mL (≈ 23.2 µM) | CC(C)=CCCc1c(C)ccc2c1C(=O)C(=O)C(C(C)C)=C2 [Compound 7, saprorthoquinone] |  | 10.6 ± 0.28 µg/mL (≈ 35.8 µM) | 29.12 ± 0.21 µg/mL (≈ 98.2 µM) | 8.02 ± 0.52 µg/mL (≈ 27.1 µM) | 2.81 ± 0.45 µg/mL (≈ 9.48 µM) | 100% | 1.3 ± 0.08 µg/mL (≈ 4.39 µM) |  |  |  | strong cytotoxicity |  |
|  |  |  | tebesinone B | 5.47 to 10.3 µM |  |  |  |  |  |  |  |  |  |  |  |

| Molecule | IC50 [2] | IC50 [3] | IC50 [4] | IC50 [1] | IC80 [2] | IC80 [3] | IC80 [4] | IC50 at 72 h [5, 9] | NO inhibition [6] | IC50 [6] | IC50 [7] | IC50 [8] | cytotoxic effect (human carcinoma KB cells) | cytotoxicity (P388 leukemia cells) | IC50 at 72 h [5] |
| --- | --- | --- | --- | --- | --- | --- | --- | --- | --- | --- | --- | --- | --- | --- | --- |
| CC(C)c1cc2c(c(O)c1O)C1=CC(=O)CC(C)(C)[C@@]1(C)C=C2 [Compound 17, pygmaeocin C] | 15.3 ± 0.71 µg/mL (≈ 48.9 µM) | 38.8 ± 1.55 µg/mL (≈ 124 µM) | 10.1 ± 1.81 µg/mL (≈ 32.4 µM) |  | 24.4 ± 2.65 µg/mL (≈ 78 µM) | 73.5 ± 2.06 µg/mL (≈ 235 µM) | 26.6 ± 4.82 µg/mL (≈ 85.2 µM) |  | 91% | 1.73 ± 0.04 µg/mL (≈ 5.54 µM) |  |  |  |  | 6.27 ± 0.94 µg/mL (≈ 20.1 µM) |
